{
  "source": "patent US10851089B2",
  "about": "“Matrix metalloproteinase (MMP) inhibitors and methods of use thereof” (Foresee Pharmaceuticals Co., Ltd., priority 2018, dated 2020)",
  "key": {"[1]": {"tested_on": "UUO-induced renal fibrosis", "assay": "SD rat kidney fibrosis model by unilateral ureteral occlusion (UUO)", "assay_type": "in vivo, Sprague Dawley rat", "protocol": "This study was to evaluate the therapeutic efficacy of the MMP-12 inhibitor FC-4 on a renal fibrosis model by unilateral ureteral occlusion (UUO). Male Sprague Dawley (SD) rats (180-220 g, n=71) were used in this study. Animals were randomly divided into 4 groups: vehicle group (group-1, n=8), FC-4 2 mg/kg/day group (group-2, n=9), FC-4 6 mg/kg/day group (group-3, n=9), FC-4 20 mg/kg/day group (group-4, n=9). Animals were anesthetized with 2.5% isoflurane inhalation. The left ureter was ligated to create a unilateral ureteral occlusion (UUO) model to induce renal fibrosis. The test article FC-4 was administrated twice a day via oral delivery after modeling for 14 days. Peripheral blood serum was prepared at pre-modeling and day-15 (one day after last dosing). All animals were euthanized and processed for left kidney pathology studies.\nAnimals: Gender: Male, SD rats, 180-220 g, total 71. Certificate: 11400700272659, Beijing Vital River Laboratory Animal Technology Co., Ltd., China. Animal holding: Animals were maintained in a temperature-controlled environment with a 12 hours light/12 hours dark cycle and free access to food and water. Experimental procedures were performed according to IACUC guidelines in the KCI (SuZhou) Biotech Inc. (KCI) animal research facility. Model creation: Total 36 male SD rats were used in this study. After anesthesia with 2.5% isoflurane inhalation the animal abdomen was opened surgically. The left ureter was exposed and ligated close to the bladder to create the UUO model. After confirming no bleeding, the abdomen wall was closed in layers. The animals were maintained under temperature controlled pad (37° C.) for the recovery from anesthesia, and then were transferred to holding cages with regular food and water.\nExperiment grouping: UUO modeling animals were divided into 4 groups randomly as vehicle (group-1, n=9), FC-4 2 mg/kg/day (group-2, n=9), FC-4 6 mg/kg/day (group-3, n=9), FC-4 20 mg/kg/day (group-4, n=9) (Table 4.1). Dosing regimen: All test articles were designed as an oral administration via a gastric perfusion. Test articles were designed to be delivered twice a day starting on the same day of modeling for 14 days (Table 4.1). Endpoints: 1) Blood collection: Peripheral blood was collected from all animals in each group and prepared for serum at pre-modeling and day-15 (one day after last dosing), stored at −80° C. All animals were euthanized according to KCI SOP. After confirming animal death without breath and heart beat, the left kidneys were perfused with cold PBS followed by 10% neutral formalin and collected for further pathology study. 2) Detection of serum BUN and creatinine: The serum BUN and creatinine level were detected with Hitachi 7060 automatic biochemical analyzer and related test kits. 3) Kidney pathology examination: 3a) Kidney H&E staining and analysis: Following KCI's pathologic SOP all left kidneys were fixed in 10% formalin for at least 24 h at room temperature. After fixation, the kidney was cut longitudinally to get the largest surface and dehydrated in graded ethanol, cleared in xylene, and embedded in paraffin. Thin sections (3-μm) were mounted on glass slides, dewaxed, rehydrated to distilled water, and stained with hematoxylin and eosin (H&E). All stained slides were scanned with NanoZoomer Digital Pathology (S210, Hamamaci, Japan) scanner. Semi quantitative evaluation of the degree of tubular epithelial flattening and dilatation were graded from 0-5 according to the percentage of tubular involvement: score 0=no damage; score 1=1-10% damage; score 2=10-25% damage; score 3=25-50% damage; score 4=50-75% damage; score 5=75-100% damage. Semi quantitative evaluation of the tubular necrosis is graded from 0 to 3 according to the percentage of tubular involvement: score 0=no necrosis; score 1=<25% necrosis; score 2=25-50% necrosis; score 3=>50% necrosis. The average of tubular flattening and dilatation and necrosis as the total tubular damage was presented. […]"}, "recombinant human MMP-7": {"target": "recombinant human MMP-7 (Homo sapiens (Human), UniProt P09237)", "sequence (P09237 95-267)": "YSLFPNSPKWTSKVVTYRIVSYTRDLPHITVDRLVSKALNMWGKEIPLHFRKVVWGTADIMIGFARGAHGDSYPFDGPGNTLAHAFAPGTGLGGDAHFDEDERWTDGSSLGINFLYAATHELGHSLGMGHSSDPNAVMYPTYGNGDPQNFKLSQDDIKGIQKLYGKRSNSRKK", "assay": "MMP selectivity assay MMP-7", "assay_type": "biochemical", "protocol": "(§1) The inhibitory effect of compounds on the rate of cleaving fluorogenic MMP substrate (Enzo, BML-P128) by recombinant human MMP-12 catalytic domain (Enzo, BML-SE138) was carried out by methods known in the art. Briefly, to each well of a 96-well black opaque plate, all the reagents were sequentially added by pipetting, and the final reaction contained 4 nM of recombinant human MMP-12 catalytic domain, 4 μM of fluorogenic MMP substrate, and various concentrations (0.15 nM to 10,000 nM) of tested compound dilutions in HEPES buffer (pH 7.5) containing 10 mM of CaCl2, 0.01% Brij® 35 (polyoxyethylene (23) lauryl ether), and 0.1 mg/ml of BSA.\n(§2) The enzyme and compounds were pre-incubated on a shaker to mix in wells. After an hour of mixing, fluorogenic substrate was added to each well. Reaction without enzyme was used as a blank control in the plate. The plate was then fed into a plate reader to measure fluorescence intensity at Excitation/Emission wavelengths of 340 nm/440 nm every 10 mins for at least 1 hour at 37° C. The IC50 of each compound in MMP-12 inhibition was determined by using a readout obtained at time point 30 minutes.\n(§3) The MMP selectivity assay was performed by using other recombinant human MMPs, including MMP-1, MMP-2, MMP-3, MMP-7, MMP-8, MMP-9, MMP-10, MMP-13, and MMP-14. The IC50 of the compounds for the other recombinant human MMPs was determined as described above in Example 1, and are shown in Table 2."}, "recombinant human MMP-13": {"target": "recombinant human MMP-13 (Homo sapiens (Human), UniProt P45452)", "assay": "MMP selectivity assay MMP-13", "assay_type": "biochemical", "protocol": "as §1, §2, §3"}, "recombinant human MMP-9": {"target": "recombinant human MMP-9 (Homo sapiens (Human), UniProt P14780)", "sequence (P14780 94-707)": "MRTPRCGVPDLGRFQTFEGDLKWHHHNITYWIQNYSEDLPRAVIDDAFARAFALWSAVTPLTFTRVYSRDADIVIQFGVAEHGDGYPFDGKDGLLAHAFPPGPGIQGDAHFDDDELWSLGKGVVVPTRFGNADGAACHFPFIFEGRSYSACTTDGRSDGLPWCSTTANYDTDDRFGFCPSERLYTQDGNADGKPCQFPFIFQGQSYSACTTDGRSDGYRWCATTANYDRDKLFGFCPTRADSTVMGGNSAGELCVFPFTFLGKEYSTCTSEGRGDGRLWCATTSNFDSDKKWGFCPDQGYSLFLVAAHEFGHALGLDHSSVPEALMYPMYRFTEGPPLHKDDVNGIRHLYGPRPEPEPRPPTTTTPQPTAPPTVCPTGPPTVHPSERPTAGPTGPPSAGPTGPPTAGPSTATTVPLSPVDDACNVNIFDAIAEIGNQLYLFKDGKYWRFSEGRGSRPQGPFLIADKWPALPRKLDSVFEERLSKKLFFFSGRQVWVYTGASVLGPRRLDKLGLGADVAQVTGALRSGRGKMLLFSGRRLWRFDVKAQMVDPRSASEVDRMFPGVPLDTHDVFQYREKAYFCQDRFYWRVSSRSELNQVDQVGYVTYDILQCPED", "assay": "MMP selectivity assay MMP-9", "assay_type": "biochemical", "protocol": "as §1, §2, §3"}, "recombinant human MMP-8": {"target": "recombinant human MMP-8 (Homo sapiens (Human), UniProt P22894)", "sequence (P22894 101-467)": "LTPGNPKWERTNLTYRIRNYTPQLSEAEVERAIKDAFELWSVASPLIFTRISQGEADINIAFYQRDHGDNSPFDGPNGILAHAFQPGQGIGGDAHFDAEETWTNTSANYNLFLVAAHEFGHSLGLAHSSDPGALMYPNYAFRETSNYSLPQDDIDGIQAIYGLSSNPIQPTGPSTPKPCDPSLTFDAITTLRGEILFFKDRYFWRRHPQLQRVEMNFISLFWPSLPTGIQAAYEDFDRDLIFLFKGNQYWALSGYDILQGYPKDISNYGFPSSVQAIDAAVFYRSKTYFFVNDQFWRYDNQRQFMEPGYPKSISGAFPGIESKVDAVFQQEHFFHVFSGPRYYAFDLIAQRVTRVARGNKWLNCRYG", "assay": "MMP selectivity assay MMP-8", "assay_type": "biochemical", "protocol": "as §1, §2, §3"}},
  "note": "pIC50: −log10 of the molar value.",
  "data": [
    {"smiles": "Cc1cc(COc2ccc(Sc3ccoc3C3NC(=O)NC3=O)cc2)ccn1", "note": "(centres unmarked) [FC-4]", "values": [
      {"measurement": "Collagen-IV deposition in cortex of left kidney (IHC)", "setting": "[1]; 6 mg/kg/day, p<0.05", "result": "significant reduction"},
      {"measurement": "Collagen-I deposition in cortex of left kidney (IHC)", "setting": "[1]; 20 mg/kg/day", "result": "significant reduction"},
      {"measurement": "Serum BUN elevation", "setting": "[1]; 20 mg/kg/day p.o. bid, day-15, not statistically significant vs model", "result": "slightly limit the BUN elevation"},
      {"measurement": "Collagen-IV deposition in cortex of left kidney (IHC)", "setting": "[1]; 20 mg/kg/day, p<0.001", "result": "significant reduction"},
      {"measurement": "Interstitial fibrosis score in cortex", "setting": "[1]; 20 mg/kg/day, p<0.001", "result": "significant reduction"},
      {"measurement": "Left kidney tubular damage score", "setting": "[1]; 2, 6, 20 mg/kg/day, 20 more effective than 2 mg/kg/day (p<0.01)", "result": "clear dose dependent effect"},
      {"measurement": "Interstitial inflammation in cortex (semi quantitative)", "setting": "[1]; dose dependent efficacy", "result": "significant reduction"},
      {"measurement": "pIC50", "setting": "recombinant human MMP-7", "result": "< 5.00"},
      {"measurement": "pIC50", "setting": "recombinant human MMP-13", "result": "7.00 to 8.00"},
      {"measurement": "pIC50", "setting": "recombinant human MMP-9", "result": "6.00 to 7.00"},
      {"measurement": "pIC50", "setting": "recombinant human MMP-8", "result": "7.00 to 8.00"}
    ]}
  ]
}
